# Experimental data as given in ChEMBL document CHEMBL4190378, “Synthesis and evaluation of new 2-chloro-4-aminopyrimidine and 2,6-dimethyl-4-aminopyrimidine derivatives as tubulin polymerization inhibitors” (Bioorg Med Chem Lett, 2018).
# The source made the active and inactive calls. No cut-off for these calls is given here.
# Tests used:
# HeLa [1] = assay: Inhibition of tubulin polymerization in human HeLa cells assessed as morphological changes by measuring narrowing of nucleus at 0.5 uM incubated for 24 hrs by laser scanning confocal microscopy; type: functional, cell-based
# HepG2 = assay: Antiproliferative activity against human HepG2 cells incubated for 48 hrs by MTT assay; type: functional, cell-based; conditions: HepG2, 48 h
# HeLa [2] = assay: Induction of cell cycle arrest in human HeLa cells assessed as accumulation at subG1 phase at 500 nM incubated for 24 hrs by propidium iodide staining based flow cytometry; type: functional
# HeLa [3] = assay: Induction of apoptosis in human HeLa cells assessed as early apoptotic cells level at 500 nM incubated for 72 hrs by Annexin-V/FITC and propidium iodide staining based flow cytometry (reference value: 0.16%); type: functional
# HeLa [4] = assay: Induction of apoptosis in human HeLa cells assessed as viable cells level at 500 nM incubated for 72 hrs by Annexin-V/FITC and propidium iodide staining based flow cytometry (reference value: 99.72%); type: functional
# HeLa [5] = assay: Induction of apoptosis in human HeLa cells assessed as late apoptotic cells level at 100 nM incubated for 72 hrs by Annexin-V/FITC and propidium iodide staining based flow cytometry (reference value: 0.02%); type: functional
# HeLa [6] = assay: Induction of apoptosis in human HeLa cells assessed as early apoptotic cells level at 500 nM incubated for 48 hrs by Annexin-V/FITC and propidium iodide staining based flow cytometry (reference value: 0.16%); type: functional
# HeLa [7] = assay: Induction of apoptosis in human HeLa cells assessed as necrotic cells level at 100 nM incubated for 48 hrs by Annexin-V/FITC and propidium iodide staining based flow cytometry (reference value: 0.03%); type: functional
# HeLa [8] = assay: Induction of cell cycle arrest in human HeLa cells assessed as accumulation at G2/M phase at 500 nM incubated for 24 hrs by propidium iodide staining based flow cytometry; type: functional
# HeLa [9] = assay: Induction of apoptosis in human HeLa cells assessed as necrotic cells level at 500 nM incubated for 72 hrs by Annexin-V/FITC and propidium iodide staining based flow cytometry (reference value: 0.03%); type: functional
# HeLa [10] = assay: Induction of apoptosis in human HeLa cells assessed as viable cells level at 50 nM incubated for 48 hrs by Annexin-V/FITC and propidium iodide staining based flow cytometry (reference value: 99.72%); type: functional
# HeLa [11] = assay: Induction of apoptosis in human HeLa cells assessed as necrotic cells level at 100 nM incubated for 72 hrs by Annexin-V/FITC and propidium iodide staining based flow cytometry (reference value: 0.03%); type: functional
# HeLa [12] = assay: Induction of mitochondrial transmembrane potential loss in human HeLa cells assessed as JC1 dye monomers level at 500 nM incubated for 24 hrs by JC1 staining based flow cytometry (reference value: 4.12%); type: functional
# HeLa [13] = assay: Induction of cell cycle arrest in human HeLa cells assessed as accumulation at subG1 phase at 100 nM incubated for 24 hrs by propidium iodide staining based flow cytometry; type: functional
# HeLa [14] = assay: Induction of apoptosis in human HeLa cells assessed as early apoptotic cells level at 100 nM incubated for 48 hrs by Annexin-V/FITC and propidium iodide staining based flow cytometry (reference value: 0.16%); type: functional
# HeLa [15] = assay: Induction of apoptosis in human HeLa cells assessed as late apoptotic cells level at 100 nM incubated for 48 hrs by Annexin-V/FITC and propidium iodide staining based flow cytometry (reference value: 0.02%); type: functional
# HeLa [16] = assay: Induction of cell cycle arrest in human HeLa cells assessed as accumulation at G2/M phase at 100 nM incubated for 24 hrs by propidium iodide staining based flow cytometry; type: functional
# HeLa [17] = assay: Induction of apoptosis in human HeLa cells assessed as late apoptotic cells level at 50 nM incubated for 72 hrs by Annexin-V/FITC and propidium iodide staining based flow cytometry (reference value: 0.02%); type: functional
# A549 = assay: Antiproliferative activity against human A549 cells incubated for 48 hrs by MTT assay; type: functional, cell-based; conditions: A549, 48 h
# HeLa [18] = assay: Induction of apoptosis in human HeLa cells assessed as late apoptotic cells level at 50 nM incubated for 48 hrs by Annexin-V/FITC and propidium iodide staining based flow cytometry (reference value: 0.02%); type: functional
# HeLa [19] = assay: Induction of mitochondrial transmembrane potential loss in human HeLa cells assessed as JC1 dye aggregates level at 50 nM incubated for 24 hrs by JC1 staining based flow cytometry (reference value: 95.85%); type: functional
# HeLa [20] = assay: Induction of mitochondrial transmembrane potential loss in human HeLa cells assessed as JC1 dye monomers level at 100 nM incubated for 24 hrs by JC1 staining based flow cytometry (reference value: 4.12%); type: functional
# HeLa [21] = assay: Inhibition of tubulin polymerization in human HeLa cells assessed as morphological changes by measuring spindle microtubule dis-organisation at 0.5 uM incubated for 24 hrs by laser scanning confocal microscopy; type: functional, cell-based
# HeLa [22] = assay: Induction of cell cycle arrest in human HeLa cells assessed as induction of disappearance of G2/M phase at 500 nM incubated for 48 hrs by propidium iodide staining based flow cytometry; type: functional
# HeLa [23] = assay: Induction of mitochondrial transmembrane potential loss in human HeLa cells at 100 nM incubated for 24 hrs by JC1 staining based fluorescence microscopy; type: functional, cell-based
# HeLa [24] = assay: Induction of mitochondrial transmembrane potential loss in human HeLa cells assessed as JC1 dye aggregates level at 500 nM incubated for 24 hrs by JC1 staining based flow cytometry (reference value: 95.85%); type: functional
# HeLa [25] = assay: Induction of cell cycle arrest in human HeLa cells assessed as tetraploid peaks level at 50 nM incubated for 48 hrs by propidium iodide staining based flow cytometry; type: functional
# HeLa [26] = assay: Induction of mitochondrial transmembrane potential loss in human HeLa cells at 500 nM incubated for 24 hrs by JC1 staining based fluorescence microscopy; type: functional, cell-based
# HeLa [27] = assay: Induction of apoptosis in human HeLa cells assessed as viable cells level at 100 nM incubated for 48 hrs by Annexin-V/FITC and propidium iodide staining based flow cytometry (reference value: 99.72%); type: functional
# HeLa [28] = assay: Induction of mitochondrial transmembrane potential loss in human HeLa cells assessed as JC1 dye monomers level at 50 nM incubated for 24 hrs by JC1 staining based flow cytometry (reference value: 4.12%); type: functional
# HeLa [29] = assay: Antiproliferative activity against human HeLa cells incubated for 48 hrs by MTT assay; type: functional, cell-based
# HeLa [30] = assay: Induction of apoptosis in human HeLa cells assessed as late apoptotic cells level at 500 nM incubated for 72 hrs by Annexin-V/FITC and propidium iodide staining based flow cytometry (reference value: 0.02%); type: functional
# MDA-MB-231 = assay: Antiproliferative activity against human MDA-MB-231 cells incubated for 48 hrs by MTT assay; type: functional, cell-based; conditions: MDA-MB-231, 48 h
# HeLa [31] = assay: Inhibition of tubulin polymerization in human HeLa cells assessed as morphological changes by measuring microtubule organisation derangement at 0.05 uM incubated for 24 hrs by laser scanning confocal microscopy; type: functional, cell-based
# HeLa [32] = assay: Induction of apoptosis in human HeLa cells assessed as late apoptotic cells level at 500 nM incubated for 48 hrs by Annexin-V/FITC and propidium iodide staining based flow cytometry (reference value: 0.02%); type: functional
smiles,measurement,setting,value
COc1ccc(N(C)c2cc(C)nc(C)n2)cc1O,inhibition,HeLa [1],Active
same,IC50,HepG2,112 nM
same,Activity,HeLa [2],Active
same,Activity,HeLa [3],66.08%
same,Activity,HeLa [4],11.77%
same,Activity,HeLa [5],11.63%
same,Activity,HeLa [6],69.81%
same,Activity,HeLa [7],0.07%
same,Activity,HeLa [8],55.6%
same,Activity,HeLa [9],3.54%
same,Activity,HeLa [10],89.56%
same,Activity,HeLa [11],2.08%
same,Activity,HeLa [12],48.26%
same,Activity,HeLa [13],Active
same,Activity,HeLa [14],23.16%
same,Activity,HeLa [15],0.05%
same,Activity,HeLa [16],39.6%
same,Activity,HeLa [17],7.44%
same,IC50,A549,113 nM
same,Activity,HeLa [18],0%
same,Activity,HeLa [19],88.35%
same,Activity,HeLa [20],28.64%
same,inhibition,HeLa [21],Active
same,Activity,HeLa [22],Active
same,Activity,HeLa [23],Active
same,Activity,HeLa [24],51.28%
same,Activity,HeLa [25],38.7%
same,Activity,HeLa [26],Active
same,Activity,HeLa [27],76.71%
same,Activity,HeLa [28],11.47%
same,IC50,HeLa [29],93 nM
same,Activity,HeLa [30],18.61%
same,IC50,MDA-MB-231,1100 nM
same,inhibition,HeLa [31],Active
same,Activity,HeLa [32],0.09%
